# Tested on: AGS cells (KRAS^G12D)
# Test: Detection of cell proliferation in vitro by MTT/MTS method (cell activity experiment)
# Format: cell-based
# Conditions: Homo sapiens, AGS, 72 h, AGS cells; MTT/MTS; 3 days of drug treatment; read-out: AGS IC50
# Procedure, shortened: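 After 3-day compound exposure (final DMSO 0.5%), viability of AGS (KRAS G12D) cells, plated 1000/well one day before dosing, was measured at 490 nm following 4 h MTT or MTS incubation. IC50 was fitted from dose–effect curves relative to DMSO-treated wells.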
row,SMILES,IC50 [nM]
1,"CC1OCCc2cc(O)cc(-c3c4c(c5c(N6C[C@H]7CC[C@@H](C6)N7)nc(OC[C@@]67CCCN6C[C@H](F)C7)nc5c3F)OCO4)c21 (stereo partly drawn) [Example 392, 8-(9-((1R,5S)-3,8-diazabicyclo[3.2.1]octan-3-yl)-5-fluoro-7-(((2R,7aS)-2-fluorotetrahydro-1H-pyrrolizin-7a(5H)-yl)methoxy)-[1,3]dioxolo[4,5-f]quinazolin-4-yl)-1-methylisochroman-6-ol]",110
2,"C#Cc1c(F)ccc2cc(O)cc(-c3c4c(c5c(N6C[C@H]7CC[C@@H](C6)N7)nc(OC[C@@]67CCCN6C[C@H](F)C7)nc5c3F)OCO4)c12 [Example 393, 4-(9-((1R,5S)-3,8-diazabicyclo[3.2.1]octan-3-yl)-5-fluoro-7-(((2R,7aS)-2-fluorotetrahydro-1H-pyrrolizin-7a(5H)-yl)methoxy)-[1,3]dioxolo[4,5-f]quinazolin-4-yl)-5-ethynyl-6-fluoronaphthalen-2-ol]",70
3,"CCC1CCc2cc(O)cc(-c3c4c(c5c(N6C[C@H]7CC[C@@H](C6)N7)nc(OC[C@@]67CCCN6C[C@H](F)C7)nc5c3F)OCO4)c21 (stereo partly drawn) [Example 394, 7-(9-((1R,5S)-3,8-diazabicyclo[3.2.1]octan-3-yl)-5-fluoro-7-(((2R,7aS)-2-fluorotetrahydro-1H-pyrrolizin-7a(5H)-yl)methoxy)-[1,3]dioxolo[4,5-f]quinazolin-4-yl)-1-ethyl-2,3-dihydro-1H-inden-5-ol]",75
4,"CCc1ccc2cc(O)cc(-c3c4c(c5c(N6C[C@H]7CC[C@@H](C6)N7)nc(OC[C@@]67CCCN6C[C@H](F)C7)nc5c3F)OCO4)n12 [Example 397, 5-(9-((1R,5S)-3,8-diazabicyclo[3.2.1]octan-3-yl)-5-fluoro-7-(((2R,7aS)-2-fluorotetrahydro-1H-pyrrolizin-7a(5H)-yl)methoxy)-[1,3]dioxolo[4,5-f]quinazolin-4-yl)-3-ethylindolizin-7-ol]",70
5,"C#Cc1c(F)ccc2cc(O)cc(-c3c(F)c4nc(OC[C@@]56CCCN5C[C@H](F)C6)nc(N5C[C@H]6CC[C@@H](C5)N6)c4c4cncn34)c12 [Example 398, 4-(1-((1R,5S)-3,8-diazabicyclo[3.2.1]octan-3-yl)-5-fluoro-3-(((2R,7aS)-2-fluorotetrahydro-1H-pyrrolizin-7a(5H)-yl)methoxy)imidazo[1′,5′:1,2]pyrido[4,3-d]pyrimidin-6-yl)-5-ethynyl-6-fluoronaphthalen-2-ol]",50
6,"C#Cc1c(F)ccc2cc(O)cc(-c3c(F)c4nc(OC[C@@]56CCCN5C[C@H](F)C6)nc(N5C[C@H]6CC[C@@H](C5)N6)c4c4nccn34)c12 [Example 399, 4-(10-((1R,5S)-3,8-diazabicyclo[3.2.1]octan-3-yl)-6-fluoro-8-(((2R,7aS)-2-fluorotetrahydro-1H-pyrrolizin-7a(5H)-yl)methoxy)imidazo[1′,2′:1,2]pyrido[4,3-d]pyrimidin-5-yl)-5-ethynyl-6-fluoronaphthalen-2-ol]",65
7,"C#Cc1c(F)ccc2cc(O)cc(-c3cc4nc(OC[C@@]56CCCN5C[C@H](F)C6)nc(N5C[C@H]6CC[C@@H](C5)N6)c4c4ncn(C)c34)c12 [Example 400, 4-(9-((1R,5S)-3,8-diazabicyclo[3.2.1]octan-3-yl)-7-(((2R,7aS)-2-fluorotetrahydro-1H-pyrrolizin-7a(5H)-yl)methoxy)-3-methyl-3H-imidazo[4,5-f]quinazolin-4-yl)-5-ethynyl-6-fluoronaphthalen-2-ol]",> 2500
8,"Oc1cc(C2=C(F)c3nc(OC[C@@]45CCCN4C[C@H](F)C5)nc(N4C[C@H]5CC[C@@H](C4)N5)c3C3=NCCN32)c2ccccc2c1 [Example 401, 4-(10-((1R,5S)-3,8-diazabicyclo[3.2.1]octan-3-yl)-6-fluoro-8-(((2R,7aS)-2-fluorotetrahydro-1H-pyrrolizin-7a(5H)-yl)methoxy)-2,3-dihydroimidazo[1′,2′:1,2]pyrido[4,3-d]pyrimidin-5-yl)naphthalen-2-ol]",100
9,"C#Cc1c(F)ccc2cc(O)cc(C3=C(F)c4nc(OC[C@@]56CCCN5C[C@H](F)C6)nc(N5C[C@H]6CC[C@@H](C5)N6)c4C4=NCCN43)c12 [Example 402, 4-(10-((1R,5S)-3,8-diazabicyclo[3.2.1]octan-3-yl)-6-fluoro-8-(((2R,7aS)-2-fluorotetrahydro-1H-pyrrolizin-7a(5H)-yl)methoxy)-2,3-dihydroimidazo[1′,2′:1,2]pyrido[4,3-d]pyrimidin-5-yl)-5-ethynyl-6-fluoronaphthalen-2-ol]",56
10,"CCc1c(F)ccc2cc(O)cc(C3=C(F)c4nc(OC[C@@]56CCCN5C[C@H](F)C6)nc(N5C[C@H]6CC[C@@H](C5)N6)c4C4=NCCN43)c12 [Example 403, 4-(10-((1R,5S)-3,8-diazabicyclo[3.2.1]octan-3-yl)-6-fluoro-8-(((2R,7aS)-2-fluorotetrahydro-1H-pyrrolizin-7a(5H)-yl)methoxy)-2,3-dihydroimidazo[1′,2′:1,2]pyrido[4,3-d]pyrimidin-5-yl)-5-ethyl-6-fluoronaphthalen-2-ol]",60
11,"Oc1cc2c(c(C3=C(F)c4nc(OC[C@@]56CCCN5C[C@H](F)C6)nc(N5C[C@H]6CC[C@@H](C5)N6)c4C4=NCCN43)c1)CCCC2 [Example 406, 4-(10-((1R,5S)-3,8-diazabicyclo[3.2.1]octan-3-yl)-6-fluoro-8-(((2R,7aS)-2-fluorotetrahydro-1H-pyrrolizin-7a(5H)-yl)methoxy)-2,3-dihydroimidazo[1′,2′:1,2]pyrido[4,3-d]pyrimidin-5-yl)-5,6,7,8-tetrahydronaphthalen-2-ol]",120
12,"CC1CCCc2cc(O)cc(C3=C(F)c4nc(OC[C@@]56CCCN5C[C@H](F)C6)nc(N5C[C@H]6CC[C@@H](C5)N6)c4C4=NCCN43)c21 (stereo partly drawn) [Example 407, 4-(10-((1R,5S)-3,8-diazabicyclo[3.2.1]octan-3-yl)-6-fluoro-8-(((2R,7aS)-2-fluorotetrahydro-1H-pyrrolizin-7a(5H)-yl)methoxy)-2,3-dihydroimidazo[1′,2′:1,2]pyrido[4,3-d]pyrimidin-5-yl)-5-methyl-5,6,7,8-tetrahydronaphthalen-2-ol]",35
13,"CCC1CCc2cc(O)cc(C3=C(F)c4nc(OC[C@@]56CCCN5C[C@H](F)C6)nc(N5C[C@H]6CC[C@@H](C5)N6)c4C4=NCCN43)c21 (stereo partly drawn) [Example 408, 7-(10-((1R,5S)-3,8-diazabicyclo[3.2.1]octan-3-yl)-6-fluoro-8-(((2R,7aS)-2-fluorotetrahydro-1H-pyrrolizin-7a(5H)-yl)methoxy)-2,3-dihydroimidazo[1′,2′:1,2]pyrido[4,3-d]pyrimidin-5-yl)-1-ethyl-2,3-dihydro-1H-inden-5-ol]",41
14,"CCC1c2c(C3=C(F)c4nc(OC[C@@]56CCCN5C[C@H](F)C6)nc(N5C[C@H]6CC[C@@H](C5)N6)c4C4=NCCN43)cc(O)cc2C2CC21 (stereo partly drawn) [Example 409, 5-(10-((1R,5S)-3,8-diazabicyclo[3.2.1]octan-3-yl)-6-fluoro-8-(((2R,7aS)-2-fluorotetrahydro-1H-pyrrolizin-7a(5H)-yl)methoxy)-2,3-dihydroimidazo[1′,2′:1,2]pyrido[4,3-d]pyrimidin-5-yl)-6-ethyl-1,1a,6,6a-tetrahydrocyclopropa[a]inden-3-ol]",45
15,"CC1OCCc2cc(O)cc(C3=C(F)c4nc(OC[C@@]56CCCN5C[C@H](F)C6)nc(N5C[C@H]6CC[C@@H](C5)N6)c4C4=NCCN43)c21 (stereo partly drawn) [Example 410, 8-(10-((1R,5S)-3,8-diazabicyclo[3.2.1]octan-3-yl)-6-fluoro-8-(((2R,7aS)-2-fluorotetrahydro-1H-pyrrolizin-7a(5H)-yl)methoxy)-2,3-dihydroimidazo[1′,2′:1,2]pyrido[4,3-d]pyrimidin-5-yl)-1-methylisochroman-6-ol]",75
16,"CCc1ccc2cc(O)cc(C3=C(F)c4nc(OC[C@@]56CCCN5C[C@H](F)C6)nc(N5C[C@H]6CC[C@@H](C5)N6)c4C4=NCCN43)n12 [Example 412, 5-(10-((1R,5S)-3,8-diazabicyclo[3.2.1]octan-3-yl)-6-fluoro-8-(((2R,7aS)-2-fluorotetrahydro-1H-pyrrolizin-7a(5H)-yl)methoxy)-2,3-dihydroimidazo[1′,2′:1,2]pyrido[4,3-d]pyrimidin-5-yl)-3-ethylindolizin-7-ol]",35
17,"CC1CCCc2cc(O)cc(-c3c(F)c4nc(OC[C@@]56CCCN5C[C@H](F)C6)nc(N5C[C@H]6CC[C@@H](C5)N6)c4c4nccn34)c21 (stereo partly drawn) [Example 414, 4-(10-((1R,5S)-3,8-diazabicyclo[3.2.1]octan-3-yl)-6-fluoro-8-(((2R,7aS)-2-fluorotetrahydro-1H-pyrrolizin-7a(5H)-yl)methoxy)imidazo[1′,2′:1,2]pyrido[4,3-d]pyrimidin-5-yl)-5-methyl-5,6,7,8-tetrahydronaphthalen-2-ol]",45
18,"CCC1CCc2cc(O)cc(-c3c(F)c4nc(OC[C@@]56CCCN5C[C@H](F)C6)nc(N5C[C@H]6CC[C@@H](C5)N6)c4c4nccn34)c21 (stereo partly drawn) [Example 415, 7-(10-((1R,5S)-3,8-diazabicyclo[3.2.1]octan-3-yl)-6-fluoro-8-(((2R,7aS)-2-fluorotetrahydro-1H-pyrrolizin-7a(5H)-yl)methoxy)imidazo[1′,2′:1,2]pyrido[4,3-d]pyrimidin-5-yl)-1-ethyl-2,3-dihydro-1H-inden-5-ol]",60
19,"CCc1c(F)ccc2cc(O)cc(-c3c(F)c4nc(OC[C@@]56CCCN5C[C@H](F)C6)nc(N5C[C@H]6CC[C@@H](C5)N6)c4c4cncn34)c12 [Example 416, 4-(1-((1R,5S)-3,8-diazabicyclo[3.2.1]octan-3-yl)-5-fluoro-3-(((2R,7aS)-2-fluorotetrahydro-1H-pyrrolizin-7a(5H)-yl)methoxy)imidazo[1′,5′:1,2]pyrido[4,3-d]pyrimidin-6-yl)-5-ethyl-6-fluoronaphthalen-2-ol]",28
20,"CC1CCCc2cc(O)cc(-c3c(F)c4nc(OC[C@@]56CCCN5C[C@H](F)C6)nc(N5C[C@H]6CC[C@@H](C5)N6)c4c4cncn34)c21 (stereo partly drawn) [Example 417, 4-(1-((1R,5S)-3,8-diazabicyclo[3.2.1]octan-3-yl)-5-fluoro-3-(((2R,7aS)-2-fluorotetrahydro-1H-pyrrolizin-7a(5H)-yl)methoxy)imidazo[1′,5′:1,2]pyrido[4,3-d]pyrimidin-6-yl)-5-methyl-5,6,7,8-tetrahydronaphthalen-2-ol]",35
